From paper doi:10.1101/209783v1 (biorxiv, 2017)

Target: Kir6.2/SUR2A KATP channel (mKir6.2 + rSUR2A) (Rattus norvegicus, UniProt Q61743+Q63563)
Experiment: inside-out excised patch clamp, Hill fit
Type: biochemical

Kir6.2/SUR2A KATP channel (mKir6.2 + rSUR2A), sequence (Q63563 whole entry): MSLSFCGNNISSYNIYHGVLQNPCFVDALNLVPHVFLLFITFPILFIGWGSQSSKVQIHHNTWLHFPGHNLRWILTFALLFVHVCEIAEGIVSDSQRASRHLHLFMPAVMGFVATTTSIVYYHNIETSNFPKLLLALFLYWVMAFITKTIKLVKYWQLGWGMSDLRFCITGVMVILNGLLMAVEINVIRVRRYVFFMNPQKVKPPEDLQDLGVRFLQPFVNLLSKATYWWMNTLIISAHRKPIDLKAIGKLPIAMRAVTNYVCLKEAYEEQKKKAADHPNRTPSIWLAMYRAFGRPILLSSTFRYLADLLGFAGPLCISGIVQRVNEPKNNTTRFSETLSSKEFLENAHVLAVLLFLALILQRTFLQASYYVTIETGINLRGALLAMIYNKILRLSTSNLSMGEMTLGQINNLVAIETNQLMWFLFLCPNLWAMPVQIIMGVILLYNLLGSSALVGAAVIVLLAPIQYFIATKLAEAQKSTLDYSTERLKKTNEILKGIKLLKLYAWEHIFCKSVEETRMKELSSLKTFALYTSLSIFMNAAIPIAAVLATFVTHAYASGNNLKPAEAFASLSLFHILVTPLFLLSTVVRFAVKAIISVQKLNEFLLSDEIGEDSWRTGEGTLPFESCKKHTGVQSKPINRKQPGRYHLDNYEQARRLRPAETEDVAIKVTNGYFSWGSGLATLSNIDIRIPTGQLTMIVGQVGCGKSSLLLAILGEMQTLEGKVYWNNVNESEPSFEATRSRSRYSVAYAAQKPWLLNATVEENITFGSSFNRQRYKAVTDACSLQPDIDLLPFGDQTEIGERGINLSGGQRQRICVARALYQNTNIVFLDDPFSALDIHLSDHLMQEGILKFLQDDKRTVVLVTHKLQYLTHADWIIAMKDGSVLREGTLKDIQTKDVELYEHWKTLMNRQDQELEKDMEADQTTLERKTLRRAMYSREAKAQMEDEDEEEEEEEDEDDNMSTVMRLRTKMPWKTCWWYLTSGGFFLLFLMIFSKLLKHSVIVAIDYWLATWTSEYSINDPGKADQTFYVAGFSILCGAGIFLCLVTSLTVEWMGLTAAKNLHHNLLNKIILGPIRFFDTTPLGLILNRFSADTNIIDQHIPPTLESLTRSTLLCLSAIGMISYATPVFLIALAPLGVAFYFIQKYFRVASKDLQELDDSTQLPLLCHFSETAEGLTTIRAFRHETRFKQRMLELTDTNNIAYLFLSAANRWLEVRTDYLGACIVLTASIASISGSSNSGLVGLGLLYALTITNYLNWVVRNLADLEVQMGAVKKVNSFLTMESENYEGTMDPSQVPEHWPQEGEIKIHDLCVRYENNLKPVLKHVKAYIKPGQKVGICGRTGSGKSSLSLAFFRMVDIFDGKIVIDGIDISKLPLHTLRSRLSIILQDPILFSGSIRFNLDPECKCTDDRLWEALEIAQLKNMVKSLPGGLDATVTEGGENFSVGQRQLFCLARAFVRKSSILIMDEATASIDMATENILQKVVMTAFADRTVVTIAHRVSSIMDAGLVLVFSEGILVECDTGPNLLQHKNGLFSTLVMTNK
Kir6.2/SUR2A KATP channel (mKir6.2 + rSUR2A), sequence (Q61743 whole entry): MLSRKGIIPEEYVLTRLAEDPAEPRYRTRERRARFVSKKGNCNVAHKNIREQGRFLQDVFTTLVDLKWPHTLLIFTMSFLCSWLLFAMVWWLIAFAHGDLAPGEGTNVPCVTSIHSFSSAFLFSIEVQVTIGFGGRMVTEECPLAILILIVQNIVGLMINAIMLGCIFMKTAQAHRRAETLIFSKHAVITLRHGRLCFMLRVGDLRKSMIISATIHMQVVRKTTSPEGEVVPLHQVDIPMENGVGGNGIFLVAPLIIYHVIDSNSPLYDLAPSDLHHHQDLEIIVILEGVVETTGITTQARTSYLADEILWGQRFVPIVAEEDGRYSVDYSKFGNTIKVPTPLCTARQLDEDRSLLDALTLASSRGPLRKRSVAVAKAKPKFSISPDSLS

| SMILES | IC50 |
| --- | --- |
| Nc1ncnc2c1ncn2[C@@H]1O[C@H](COP(=O)(O)OP(=O)(O)OP(=O)(O)O)[C@@H](O)[C@H]1O [ATP] | 14.4 ± 2.3 µM |
| COc1ccc(Cl)cc1C(=O)NCCc1ccc(S(=O)(=O)NC(=O)NC2CCCCC2)cc1 [glibenclamide] | 0.0195 ± 0.0061 µM |
